Reference: patent US20200341000A1, “METHOD OF SCREENING COMPOUNDS FOR TREATING CNS DISORDERS” (SAGE THERAPEUTICS, INC., priority 2017, published 2020)
Entries after “also recorded” stand apart in the source; their conditions may differ.

Assays:
[1] = test system: tonic current in dentate gyms granule cells (DGGCs); test: Acute (allosteric) modulation of tonic current in DGGCs of hippocampal slices; format: cell-based, mice; details: 100 nM, 10 min acute exposure, then 100 μM picrotoxin; mean±SEM
Experimental: Brain slices were prepared from 3- to 5-week-old male C57 mice. Mice were anesthetized with isoflurane, decapitated, and brains were rapidly removed and submerged in ice-cold cutting solution containing (mM): 126 NaCl, 2.5 KCl, 0.5 CaCl2, 2 MgCl2, 26 NaHCO3, 1.25 NaH2PO4, 10 glucose, 1.5 sodium pyruvate, and 3 kynurenic acid. Coronal 310 μm thick slices were cut with the vibratome VT1000S (Leica Microsystems, St Louis, Mo., USA). The slices were then transferred into incubation chamber filled with prewarmed (31-32° C.) oxygenated artificial cerebro-spinal fluid (ACSF) of the following composition (in mM): 126 NaCl, 2.5 KCl, 2 CaCl2, 2 MgCl2, 26 NaHCO3, 1.25 NaH2PO4, 10 glucose, 1.5 sodium pyruvate, 1 glutamine, 3 kynurenic acid and 0.005 GABA bubbled with 95% O2-5% CO2. Slices were allowed to recover at 32° C. for at least 1 hr before recording. Exogenous GABA was added in an attempt to standardize ambient GABA in the slice and provide an agonist source for newly inserted extrasynaptic GABAARs. […]
Whole-cell currents were recorded from the dentate gyms granule cells (DGGCs) in 310-μm-thick coronal hippocampal slices. […] A 5 min period for stabilization after obtaining the whole-cell recording conformation (holding potential of −60 mV) was allowed before currents were recorded using an Axopatch 200B amplifier (Molecular Devices), low-pass filtered at 2 kHz, digitized at 20 kHz (Digidata 1440A; Molecular Devices), and stored for offline analysis.
For tonic current measurements, an all-points histogram was plotted for a 10 s period before and during 100 μM picrotoxin application, once the response reached a plateau level. […] Series resistance and whole-cell capacitance were continually monitored and compensated throughout the course of the experiment. […] Spontaneous inhibitory post-synaptic currents (sIPSCs) were analyzed using the mini-analysis software (version 5.6.4; Synaptosoft, Decatur, Ga.). […] Only recordings with a minimum of 200 events fitting these criteria were analyzed. sIPSCs amplitude, and frequency from each experimental condition was pooled and expressed as mean±SEM. […]

[2] = test system: tonic current in dentate gyms granule cells (DGGCs); test: Sustained (metabotropic) enhancement of tonic current in DGGCs after 15 min exposure and washout; format: cell-based, mice; details: for tonic current after exposure and washout: 1 μM, vehicle 43.9±5.7 pA; for change of tonic current after exposure to different concentrations: maximal effects at 1 μM; for tonic current versus vehicle with PKC inhibitor GFX: GFX 50 μM 15 min, then co-exposure with compound 15 min, washout
Experimental: Brain slices were prepared from 3- to 5-week-old male C57 mice. Mice were anesthetized with isoflurane, decapitated, and brains were rapidly removed and submerged in ice-cold cutting solution containing (mM): 126 NaCl, 2.5 KCl, 0.5 CaCl2, 2 MgCl2, 26 NaHCO3, 1.25 NaH2PO4, 10 glucose, 1.5 sodium pyruvate, and 3 kynurenic acid. Coronal 310 μm thick slices were cut with the vibratome VT1000S (Leica Microsystems, St Louis, Mo., USA). The slices were then transferred into incubation chamber filled with prewarmed (31-32° C.) oxygenated artificial cerebro-spinal fluid (ACSF) of the following composition (in mM): 126 NaCl, 2.5 KCl, 2 CaCl2, 2 MgCl2, 26 NaHCO3, 1.25 NaH2PO4, 10 glucose, 1.5 sodium pyruvate, 1 glutamine, 3 kynurenic acid and 0.005 GABA bubbled with 95% O2-5% CO2. Slices were allowed to recover at 32° C. for at least 1 hr before recording. Exogenous GABA was added in an attempt to standardize ambient GABA in the slice and provide an agonist source for newly inserted extrasynaptic GABAARs.
After recovery, a single slice was transferred to a submerged, dual perfusion recording chamber (Warner Instruments, Hamden, Conn., USA) on the stage of an upright microscope (Nikon FN-1) with a 40× water immersion objective equipped with DIC/IR optics. Slices were maintained at 32° C. and gravity-superfused with ACSF solution throughout experimentation and perfused at rate of 2 ml/min with oxygenated (O2/CO2 95/5%) ACSF.
Whole-cell currents were recorded from the dentate gyms granule cells (DGGCs) in 310-μm-thick coronal hippocampal slices. Patch pipettes (5-7MΩ) were pulled from borosilicate glass (World Precision Instruments) and filled with intracellular solution of the composition (in mM) as follows: 140 CsCl, 1 MgCl2, 0.1 EGTA, 10 HEPES, 2 Mg-ATP, 4 NaCl and 0.3 Na-GTP (pH=7.2 with CsOH). A 5 min period for stabilization after obtaining the whole-cell recording conformation (holding potential of −60 mV) was allowed before currents were recorded using an Axopatch 200B amplifier (Molecular Devices), low-pass filtered at 2 kHz, digitized at 20 kHz (Digidata 1440A; Molecular Devices), and stored for offline analysis.
For tonic current measurements, an all-points histogram was plotted for a 10 s period before and during 100 μM picrotoxin application, once the response reached a plateau level. Recordings with unstable baselines were discarded. Fitting the histogram with a Gaussian distribution gave the mean baseline current amplitude and the difference between the amplitudes before and during picrotoxin was considered to be the tonic current. The negative section of the all-points histogram which corresponds to the inward IPSCs was not fitted with a Gaussian distribution (Kretschmannova et al., 2013; Nusser and Mody, 2002). Series resistance and whole-cell capacitance were continually monitored and compensated throughout the course of the experiment. Recordings were eliminated from data analysis if series resistance increased by >20%. Spontaneous inhibitory post-synaptic currents (sIPSCs) were analyzed using the mini-analysis software (version 5.6.4; Synaptosoft, Decatur, Ga.). Minimum threshold detection was set to 3 times the value of baseline noise signal. To assess sIPSC kinetics, the recording trace was visually inspected and only events with a stable baseline, sharp rising phase, and single peak were used to negate artifacts due to event summation. Only recordings with a minimum of 200 events fitting these criteria were analyzed. sIPSCs amplitude, and frequency from each experimental condition was pooled and expressed as mean±SEM. To measure sIPSC decay, 100 consecutive events were averaged and the decay was fitted to a double exponential and the weighted decay constant (tw) was determined. Statistical analysis was performed by using Student t-test (paired and unpaired where appropriate), where p<0.05 is considered significant.

[3] = test system: GABAA receptor β3 subunit S408/9 phosphorylation; test: Immunoblot of β3 S408/9 phosphorylation in hippocampal slices; format: cell-based, mice; details: 100 nM, 20 min, acute hippocampal slices
Experimental: (§1) Hippocampi were dissected out of acute slices from 8 to 12 week old C57/B16 mice and lysed with phosphate buffer including: 20 mM Tris-HCl, 150 mM NaCl, 5 mM EDTA, 10 mM NaF, 2 mM Na3VO4, 10 mM pyrophosphate, 0.1% SDS and 1% Triton after drug treatment. The β3 subunit was isolated using immunoprecipitation with β3 antibodies, after correction for protein content and the specific activity of labeling. Results were attained by SDS/PAGE followed by autoradiography (Abramian et al., 2010). For biotinylation experiments hippocampi were dissected out of acute slices from 8 to 12 week old C57/B16 mice and incubated in artificial cerebrospinal fluid (ACSF) described above at 30° C. for 1 h for recovery before experimentation. Slices were then placed on ice and incubated for 30 min with 1 mg/mL NHS-SS-biotin (Pierce). Excess biotin was removed by a 50 mM glycine quenching buffer, followed by washing of slices three times in ice-cold ACSF. The tissue was snap frozen on dry ice for 5 min, thawed at 4° C. and lysed. The lysates were solubilized with 2% Triton at 4° C. on a rotating wheel for 1 h. The insoluble material was removed by centrifugation, and 350-500 μg of protein lysate were incubated with NeutrAvidin beads (Pierce) for 18-24 h at 4° C. Bound material was eluted with sample buffer and subjected to SDS/PAGE and then immunoblotted with the indicated antibodies. Blots were then quantified using the CCD-based ChemiDoc XRS ? system. Antibodies against the β3 subunit and the phospho-β3 antibody were generated and verified by the laboratory of S.J.M. (Vien et al., 2015).
To produce antibodies specific for phosphorylated S443, rabbits were injected with a synthetic peptide corresponding to residues […] of the murine α4 subunit in which the serine residue corresponding to S443 was chemically phosphorylated; […]. Hippocampal slices were treated with vehicle (Con), or SGE-516 for 20 min. Slices were immunoblotted with pS408/9, β3, or actin antibodies. The ratio of pS408/9/β3 immunoreactivity was then normalized to control slices (100%=the line).
Hippocampal slices were treated with 100 nM ALLO or P4 (progesterone), and S408/9 phosphorylation was then determined as detailed above, n=4 slices (FIG. 18D). Hippocampal slices were treated with 100 nM ORG (FIG. 18E). S408/9 phosphorylation was examined using immunoblotting.

[4] = test system: plasma membrane GABAARs containing the α4 and β3 subunits; test: Biotinylation, surface/total GABAAR subunits in hippocampal slices of WT mice; format: cell-based
Experimental: as §1
Hippocampal slices were treated as outlined above. Treated slices were then subject to biotinylation and lysis, and surface fractions were isolated on immobilized avidin. Surface (S) and total (T) fractions were immunoblotted with α4 and β3 subunit antibodies.
Consistent with the examples above, hippocampal slices from WT and S408/9A mice were treated for 20 min with 100 nM SGE-516 or vehicle (Con) and subjected to biotinylation followed by immunoblotting with β3 and α4 subunit antibodies. The ratio of surface/total (S/T) immunoreactivity was then normalized to levels seen in control (100%).

[5] = 15 min incubation, 30-60 min wash

Compound | tonic current during acute exposure [1] [pA] | increase in tonic current in the absence or presence of strychnine ([2]; 100 nM ALLO 15 min, strychnine 100 nM) | change of tonic current versus vehicle ([2]; 100 nM, 15 min incubation, 30-60 min wash) | tonic current after exposure and washout [2, 5] [pA] | change of tonic current after exposure to different concentrations [2, 5] | tonic current versus vehicle with PKC inhibitor GFX [2] | β3 S408/409 phosphorylation (p-β3/T-β3) [3] | GABAA-β3-containing receptors at the plasma membrane (surface β3/T-β3) ([4]; 100 nM, 20 min) | tonic current in DGGCs after incubation and extensive washout ([2]; 100 nM, WT slices) | plasma membrane levels of GABAARs containing α4 and β3 subunits, S/T normalized to control (100%) ([4]; 100 nM, 20 min, WT mice) | plasma membrane accumulation of the α4 and β3 subunits ([4]; hippocampal slices, biotinylation)
CC(=O)[C@H]1CC[C@H]2[C@@H]3CC[C@H]4C[C@H](O)CC[C@]4(C)[C@H]3CC[C@]12C [ALLO, Allopregnanolone] | 58.3±13.0 | no difference | significant increase | 95.8±10.8 | concentration-dependent increase; also recorded: significantly enhanced | no significant difference; also recorded: No change | increases | increases |  |  | 
C[C@@]1(O)CC[C@H]2[C@H](CC[C@@H]3[C@@H]2CC[C@]2(C)[C@@H](C(=O)Cn4nccn4)CC[C@@H]32)C1 [SGE-516] | 49.2±8.9 |  |  | 123.0±22.2 | concentration-dependent increase; also recorded: significantly enhanced | no significant difference; also recorded: No change | increases | increases | significant increased | 175-185% | increased
